For data set [1], the system named is Drosophila melanogaster. Description: whole plant or invertebrate. The class given is in vivo. To be noted: for Wirksamkeit in % Substanz +Dimeti-lan: 1 ml 0,05%ige amine solution + 1 ml 0,0001%ige Dimetilan solution; for Wirksamkeit in % Substanz +Dimethoat: 1 ml 0,05%ige amine solution + 1 ml 0,005 %ige Dimethoat solution (Dimethoat : amine 1 : 10); for mortality at 0.05 %: read-out: Wirksamkeit in % Substanz allein; for Faktor der Wirkungssteigerung bei Dime-methoat: amine 0,05 % + Dimethoat 0,005 %; for Faktor der Wirkungssteigerung bei Dime-methoat / Faktor der Wirkungssteigerung bei Dimi-tilan: calculated after subtracting the amine's own effect; for Faktor der Wirkungssteigerung bei Dimi-tilan: amine 0,05 % + Dimetilan 0,0001 %. The text has this:
Die insektiziden Wirkungen von tertiären heterocyclischen Aminen und die synergistischen Eigenschaften mit dem Phosphorsäureester Dimethoat und dem Carbamat Dimetilan, getestet an Drosophila melanogaster.
Die Versuche wurden in Petrischalen von 10 cm Durchmesser ausgeführt. Es wurden zunächst die gerade noch wirksamen Konzentrationen von Dimethoat und Dimetilan bestimmt. Für Dimethoat wurde 0,005 % und für Dimetilan 0,0001 % als günstige Versuchskonzentration ermittelt. Die Aminkomponente wurde mit 1 ml 0,05%iger Lösung + 1 ml Aceton auf insektizide Wirkung getestet. Zur Bestimmung des Synergismus wurde 1 ml 0,05%ige Aminlösung + 1 ml 0,005.%ige Dimethoatlösung, bzw. + 1 ml 0,0001%ige Dimetilanlösung pro Petrischale eingesetzt. Alle Verdünnungen wurden mit Aceton als Lösungsmittel hergestellt.
In den Petrischalen wurden die Lösungen am Boden gut verteilt und 30 min lang antrocknen lassen. In jede Petrischale wurden 20 mit Kohlendioxid betäubte Drosophila eingezählt. Alle 5 min, insgesamt 12 mal, wurde die Anzahl der toten Drosophila ausgezählt und notiert. Die Zahlen wurden aufsummiert und im Verhältnis zur möglichen Zahl an toten Drosophila in % angegeben, wobei der Tot aller Drosophila innerhalb der ersten 5 min 100 % Wirkung entspricht. Jeder Versuch wurde mit 3 Wiederholungen durchgeführt. In Tabelle 1 sind die Mittelwerte der Ergebnisse zusammengestellt.
Zur Ermittlung des synergistischen Faktors wurden die Einzelwerte pro Zeiteinheit durch die für Dimethoat, bzw. Dimetilan für die jeweilige Zeiteinheit gefundenen Werte dividiert. Die Werte für jede Zeiteinheit wurden summiert und durch die Anzahl der Zeiteinheiten dividiert. Die Versuche wurden bei sonst stets gleichbleibenden Bedingungen bei Temperaturen von 20 - 22°C ausgeführt. Die Kontrollversuche zeigten bei Versuchsabschluß stets 0 % Mortalität. Hat die Substanz selbst eine insektizide Wirkung, so wurden die Wirkungsfaktoren für Dimethoat und Dimetilan nach Abzug des Substanzwertes berechnet und in der Tabelle aufgeführt.
Im Beispiel 1 war das Verhältnis von Insektizid und erfindungsgemäßem Amin 1 : 10 in den Gemischen mit Dimethoat. In der Tabelle 2 sind Verhältnisse von 1 : 1, 1 : 2 und 1 : 0,2 bei Versuchen mit Dimethoat aufgeführt, dabei wurde das Dimethoat immer in einer Konzentation von 0,005 % eingesetzt. Die Tabelle zeigt, daß auch bei diesen Verhältnissen noch eine gute synergistische Wirkung vorhanden ist, und es keineswegs einer großen überdosierung des Amins bedarf.

The subject of data set [2] is Kornkäfer (sitophilus granarius L). Description: whole plant or invertebrate. The class given is in vivo. The conditions noted are these: for mortality at 1000 µg/mL / Wirksamkeit in % Substanz allein: amine 1 mg/ml in Aceton mixed 1 : 1 with Aceton, 2 ml per dish, 25 weevils, dead counted after 3 h; for mortality at 1000 µg/mL: read-out: Wirksamkeit in % Substanz allein; for Synergistischer Faktor bei Ripcord: amine 1 mg/ml + Ripcord 0,01 mg/ml; for Synergistischer Faktor bei Talcord: amine 1 mg/ml + Talcord 0,01 mg/ml; for Wirksamkeit in % Substanz +Ripcord: amine 1 mg/ml mixed 1 : 1 with Ripcord 0,01 mg/ml; for Wirksamkeit in % Substanz +Talcord: amine 1 mg/ml mixed 1 : 1 with Talcord 0,01 mg/ml. Put shortly: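 Acetone solutions (2 ml) were dried as films in 15 cm Petri dishes and 25 grain weevils added per dish, with a filter inserted after 1 h. Dead beetles were counted at 3 h at 19–21 °C, and % mortality and the synergistic factor were derived.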

Where [3] appears, read: Drosophila melanogaster, 1 ml 0,05%ige amine solution + 1 ml Aceton per dish, 20 flies, dead counted every 5 min, 12 times, mean values.
Setting [4] is: Pyrethroid : Amin 1 : 10, amine 0,1 mg/ml, 180 min.

`CC(C)=CCCC(C)CCN1CCCCC1` (stereo not drawn) [N-Citronellyl-piperidin]: the mortality at 0.001 % in data set [1] (Drosophila melanogaster, amine 0,001 %, read-out: Sub-stanz allein) was 0%. In addition, in data set [1] (Drosophila melanogaster, amine 0,005 %, read-out: Sub-stanz allein), the mortality at 0.005 % came to 0%. Further, the “Substanz + Dime-thoat” value in data set [1] (amine 0,001 % + Dimethoat 0,005 %, Dimethoat : Amin 1 : 0,2) is given as 30,4%; in data set [1] (amine 0,005 % + Dimethoat 0,005 %, Dimethoat : Amin 1 : 1) it was 32,9%. The “Faktor der Wirkungs-steigerung” value is reported as 3,53 in data set [1] (amine 0,001 %, Dimethoat : Amin 1 : 0,2) and 3,83 in data set [1] (amine 0,005 %, Dimethoat : Amin 1 : 1). In addition, in data set [2] (Sitophilus granarius), the mortality at 1000 µg/mL was 1.2%. Also, the “Synergistischer Faktor bei Ripcord” value in data set [2] is reported as 2,46. Moreover, in data set [2], the “Synergistischer Faktor bei Talcord” value was 5,53. Moreover, the “Wirksamkeit in % Substanz +Ripcord” value in data set [2] (3 h) is listed as 78,8%. In addition, the “Wirksamkeit in % Substanz +Talcord” value in data set [2] (3 h) was 54,8%.
As for `CCCCCCCCCN1CCCCC1CC` (stereo not drawn) [1-n-Nonyl-2-ethyl-piperidin], in data set [1], the “Wirksamkeit in % Substanz +Dimeti-lan” value was 7,9%, the “Wirksamkeit in % Substanz +Dimethoat” value is 24,6% and the “Faktor der Wirkungssteigerung bei Dime-methoat” value is 2,19. The mortality at 0.05 % in data set [1] (setting [3]) worked out at 5.8%.
Regarding `C(=CC1CCCCC1)CN1CCCC1` [N-(3-Cyclohexyl-propen-(2))-pyrrolidin], in data set [1], the “Wirksamkeit in % Substanz +Dimeti-lan” value came out at 0%, the “Wirksamkeit in % Substanz +Dimethoat” value is on record as 22,5% and the “Faktor der Wirkungssteigerung bei Dime-methoat” value is listed as 2,86. Moreover, in data set [1] (1 ml 0,05%ige amine solution + 1 ml Aceton per dish, 20 flies, dead counted every 5 min, 12 times, mean values), the “Wirksamkeit in % Substanz allein” value is 0%.
On to `Cc1cc(OC(=O)N(C)C)nn1C(=O)N(C)C` [Dimetilan, reference compound], for which the mortality at 0.0001 % in data set [1] (Drosophila melanogaster, read-out: Wirksamkeit von Dimetilan) came out at 2.5%.
With `CCCCCCCCCCN1CCCCC1CC` (stereo not drawn) [N-1-Decyl-2-ethyl-piperidin], in data set [1], the “Wirksamkeit in % Substanz +Dimeti-lan” value is on record as 56,3%, the “Wirksamkeit in % Substanz +Dimethoat” value is given as 55,8%, the “Faktor der Wirkungssteigerung bei Dime-methoat” value was 2,42 and the “Faktor der Wirkungssteigerung bei Dimi-tilan” value is recorded as 8,52. Moreover, the mortality at 0.05 % in data set [1] (setting [3]) was found to be 35%.
Take `CCCCCCCCCCN1CCCCC1C` (stereo not drawn) [N-Decyl-2-methyl-piperidin]: in data set [1], the “Wirksamkeit in % Substanz +Dimeti-lan” value is 77,9%, the “Wirksamkeit in % Substanz +Dimethoat” value is given as 66,7% and the “Faktor der Wirkungssteigerung bei Dimi-tilan” value was 2,87. Moreover, the mortality at 0.05 % in data set [1] (setting [3]) was found to be 61.3%.
Turning to N-Hydrinden-morpholin, in data set [2], the “Synergistischer Faktor bei Ripcord” value was 1,40, the “Synergistischer Faktor bei Talcord” value is reported as 3,17 and the “Wirksamkeit in % Substanz allein” value is given as 0%. Besides, in data set [2] (3 h), the “Wirksamkeit in % Substanz +Ripcord” value is on record as 44,0% and the “Wirksamkeit in % Substanz +Talcord” value is listed as 30,8%.
As to `CCC1CCCCN1Cc1ccccc1` (stereo not drawn) [N-Benzyl-2-ethyl-piperidin], in data set [2] (Sitophilus granarius), the mortality at 1000 µg/mL is 0%. Also, in data set [2], the “Synergistischer Faktor bei Ripcord” value is on record as 2,50 and the “Synergistischer Faktor bei Talcord” value is recorded as 1,53. Moreover, in data set [2] (3 h), the “Wirksamkeit in % Substanz +Ripcord” value is listed as 78,8% and the “Wirksamkeit in % Substanz +Talcord” value was 14,8%.
Turning to `CC(C)=CCCC(C)=CCCC(C)=CCN1CCCCC1` [N-Farnesyl-piperidin], the mortality at 1000 µg/mL in data set [2] (Sitophilus granarius) was 0%. For the same compound, in data set [2], the “Synergistischer Faktor bei Ripcord” value is 2,67 and the “Synergistischer Faktor bei Talcord” value was 4,25. In addition, in data set [2] (3 h), the “Wirksamkeit in % Substanz +Ripcord” value is listed as 84,0% and the “Wirksamkeit in % Substanz +Talcord” value is 41,2%.
Consider `OCCN1CCCC1` [2-N-Pyrrolidino-ethanol], for which, in data set [2], the “Synergistischer Faktor bei Ripcord” value is given as 2,58, the “Synergistischer Faktor bei Talcord” value is 5,48 and the “Wirksamkeit in % Substanz allein” value is reported as 0%. Also, in data set [2] (3 h), the “Wirksamkeit in % Substanz +Ripcord” value is listed as 81,2% and the “Wirksamkeit in % Substanz +Talcord” value was 53,2%.
Take `CCCCCCCCCN1CCCCCC1` [N-1-Nonyl-hexamethylenimin]: the mortality at 1000 µg/mL in data set [2] (Sitophilus granarius) was determined as 40%. Besides, in data set [2], the “Synergistischer Faktor bei Ripcord” value is reported as 1,82 and the “Synergistischer Faktor bei Talcord” value was 4,54. In addition, in data set [2] (3 h), the “Wirksamkeit in % Substanz +Ripcord” value was 97,2% and the “Wirksamkeit in % Substanz +Talcord” value is on record as 84,0%.
For `CC1(C)C(C=C(Cl)Cl)C1C(=O)OC(C#N)c1cccc(Oc2ccccc2)c1` (stereo not drawn) [Ripcord, reference compound], the “Wirksamkeit von Ripcord” value in data set [2] (Ripcord alone, 0,01 mg/ml mixed 1 : 1 with Aceton, 3 h) is recorded as “Wirksamkeit von Ripcord: 31,5%”.
In the case of `CCCCCCCCCCCCCCN1CCCC1` [N-1-Tetradecyl-pyrrolidin], in data set [2] (Sitophilus granarius), the mortality at 1000 µg/mL worked out at 0%. Besides, in data set [2], the “Synergistischer Faktor bei Ripcord” value is on record as 1,59. Moreover, in data set [2] (3 h), the “Wirksamkeit in % Substanz +Ripcord” value is listed as 50,0% and the “Wirksamkeit in % Substanz +Talcord” value was 6,0%.
With N-Lactosido-pyrrolidin, in data set [2], the “Synergistischer Faktor bei Ripcord” value is reported as 2,70, the “Synergistischer Faktor bei Talcord” value is on record as 2,06 and the “Wirksamkeit in % Substanz allein” value worked out at 0%. Besides, in data set [2] (3 h), the “Wirksamkeit in % Substanz +Ripcord” value is recorded as 85,2% and the “Wirksamkeit in % Substanz +Talcord” value is 20,0%.
The matching figures for `Clc1ccc(CN2CCCCC2)cc1` [N-4-Chlor-benzyl-piperidin]: 2,37, 4,82, 0%, 74,8% and 46,8%.
For `CCCCC(CC)CN1CCCC1` (stereo not drawn) [N-1-(2-Ethyl)-hexyl-pyrrolidin], in data set [2], the “Synergistischer Faktor bei Ripcord” value is listed as 1,78, the “Synergistischer Faktor bei Talcord” value is 4,24 and the “Wirksamkeit in % Substanz allein” value was 0%. In addition, in data set [2] (3 h), the “Wirksamkeit in % Substanz +Ripcord” value is recorded as 56,0% and the “Wirksamkeit in % Substanz +Talcord” value is 41,2%.
Turning to `CCCCCCCCCCN1CCOCC1` [N-1-Decyl-morpholin], the mortality at 1000 µg/mL in data set [2] (Sitophilus granarius) worked out at 0%. Besides, in data set [2], the “Synergistischer Faktor bei Ripcord” value is reported as 2,32 and the “Synergistischer Faktor bei Talcord” value is given as 8,37. For the same compound, in data set [2] (3 h), the “Wirksamkeit in % Substanz +Ripcord” value is 73,1% and the “Wirksamkeit in % Substanz +Talcord” value is 81,2%.
`c1ccc(CN2CCCCC2)cc1` [N-Benzyl-piperidin]: in data set [2] (setting [4]), the “% Wirkung Substanz +Ripcord” value is on record as 100,0% and the “% Wirkung Substanz +Talcord” value is given as 73,2%. Moreover, the mortality at 100 µg/mL in data set [2] (Sitophilus granarius, 3 h, amine 0,1 mg/ml (as for Pyrethroid : Amin 1 : 10), read-out: % Wirkung Substanz allein) amounted to 0%. In addition, in data set [2] (Sitophilus granarius), the mortality at 1000 µg/mL was 0%. For the same compound, in data set [2] (3 h), the “Wirksamkeit in % Substanz +Ripcord” value was 94,8% and the “Wirksamkeit in % Substanz +Talcord” value is 32,0%.
Take `C1CCC(N2CCCC2)CC1` [N-Cyclohexyl-pyrrolidin]: the mortality at 1000 µg/mL in data set [2] (Sitophilus granarius) was 0%. For the same compound, in data set [2], the “Synergistischer Faktor bei Ripcord” value is 2,16 and the “Synergistischer Faktor bei Talcord” value is 1,72. In data set [2] (3 h), the “Wirksamkeit in % Substanz +Ripcord” value is 68,0% and the “Wirksamkeit in % Substanz +Talcord” value is reported as 17,2%.
Turning to `CCCCCCCCCCCCN1CCCCC1C` (stereo not drawn) [N-1-Dodecyl-2-methyl-piperidin], the mortality at 1000 µg/mL in data set [2] (Sitophilus granarius) was determined as 0%. Moreover, in data set [2], the “Synergistischer Faktor bei Ripcord” value is given as 1,49 and the “Synergistischer Faktor bei Talcord” value is 2,06. In data set [2] (3 h), the “Wirksamkeit in % Substanz +Ripcord” value is reported as 46,8% and the “Wirksamkeit in % Substanz +Talcord” value is 20,0%.
Consider `OCCN1CCOCC1` [N-Ethanol-morpholin], for which, in data set [2], the “Synergistischer Faktor bei Ripcord” value is reported as 2,12, the “Synergistischer Faktor bei Talcord” value was 4,0 and the “Wirksamkeit in % Substanz allein” value stood at 0%. Besides, in data set [2] (3 h), the “Wirksamkeit in % Substanz +Ripcord” value is on record as 66,8% and the “Wirksamkeit in % Substanz +Talcord” value was 38,8%.
For the compound `c1ccc(OCCCN2CCCCCC2)cc1` [N-3-Phenoxi-propyl-(1)-hexamethylenimin], in data set [2], the “Synergistischer Faktor bei Ripcord” value is reported as 2,03, the “Synergistischer Faktor bei Talcord” value is reported as 3,42 and the “Wirksamkeit in % Substanz allein” value is listed as 0%. For the same compound, in data set [2] (3 h), the “Wirksamkeit in % Substanz +Ripcord” value was 64,0% and the “Wirksamkeit in % Substanz +Talcord” value is given as 33,2%.

These data come from patent EP0029617A1, “Use of tertiary heterocyclic amines as synergists in pesticides; derivatives of cycloamines” (priority 1979, dated 1981).
